Drawing on patent US20260374754A1, “N-((ISOQUINOLIN-6-YL)METHYL)-1H-PYRAZOLE-4-CARBOXAMIDE DERIVATIVES AS PLASMA KALLIKREIN INHIBITORS FOR THE TREATMENT OF HEREDITARY ANGIODEMA” (Takeda Pharmaceutical Company Limited, priority 2022, published 2026), this text covers EC50 for 31 compounds.

The structures appear in SMILES notation. pEC50: −log10 of the molar value. Structures can show the parent of a compound that is named as a salt. Bounds are passed on as bounds.

The target in the experiment is human activated kallikrein enzyme (Homo sapiens, UniProt P03952). Put plainly: Inhibition of human activated plasma kallikrein, fluorogenic PFR-AMC substrate, 500 pM enzyme format. In kind it is biochemical. The note with it: 500 pM activated kallikrein; 300 μM PFR-AMC; 30 min preincubation; 10 min room temperature; pH 7.5; read-out: Primary Dose Response Assay: Average EC50. In short, it runs like this: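 500 pM activated kallikrein preincubated 30 min at room temperature with inhibitors in pH 7.5 Tris/EDTA/NaCl buffer with PEG-400 and Triton X-100. Reaction started with 300 μM PFR-AMC, run 10 min at room temperature; AMC fluorescence read at ex 380/em 460 nm.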
human activated kallikrein enzyme, sequence (P03952 391-638 limits assumed): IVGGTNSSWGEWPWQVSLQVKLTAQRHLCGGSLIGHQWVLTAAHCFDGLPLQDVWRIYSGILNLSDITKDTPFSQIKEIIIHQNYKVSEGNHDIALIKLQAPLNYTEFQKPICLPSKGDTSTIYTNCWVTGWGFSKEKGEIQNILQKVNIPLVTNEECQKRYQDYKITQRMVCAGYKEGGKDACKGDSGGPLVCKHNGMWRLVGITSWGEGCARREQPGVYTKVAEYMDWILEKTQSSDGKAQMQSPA
human activated kallikrein enzyme, sequence (P03952 20-390 partner limits assumed): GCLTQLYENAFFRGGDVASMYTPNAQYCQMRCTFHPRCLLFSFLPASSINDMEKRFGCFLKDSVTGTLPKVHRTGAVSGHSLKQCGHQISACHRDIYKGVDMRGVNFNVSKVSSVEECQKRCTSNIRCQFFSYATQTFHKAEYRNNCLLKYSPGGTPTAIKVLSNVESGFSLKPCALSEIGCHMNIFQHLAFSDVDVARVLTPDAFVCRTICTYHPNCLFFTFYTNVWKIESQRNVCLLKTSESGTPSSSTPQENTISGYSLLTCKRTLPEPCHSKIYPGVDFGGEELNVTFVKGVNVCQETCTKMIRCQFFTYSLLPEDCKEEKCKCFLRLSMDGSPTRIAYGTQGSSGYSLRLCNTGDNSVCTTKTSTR
For the compound `Cc1cc2c(N)nccc2c(C)c1CNc1cc(OCc2cn3nc(C4CC4)cc(CN4CCCC4)c3n2)ncn1` [Example 394, 6-(((6-((6-cyclopropyl-8-(pyrrolidin-1-ylmethyl)imidazo[1,2-b]pyridazin-2-yl)methoxy)pyrimidin-4-yl)amino)methyl)-5,7-dimethylisoquinolin-1-amine], the negative logarithm of the EC50 (pEC50) is more than 9.00.
For `Cc1cc2c(N)nccc2c(C)c1CNc1cc(OCc2ccc(CN3CCOCC3=O)cc2)cnn1` [Example 434, 4-(4-(((6-(((1-amino-5,7-dimethylisoquinolin-6-yl)methyl)amino)pyridazin-4-yl)oxy)methyl)benzyl)morpholin-3-one] the value was more than 9.00; for `Cc1cc2c(N)nccc2c(C)c1CNc1cc(OCc2ccc(-n3ccccc3=O)cc2)cnn1` [Example 438, 1-(4-(((6-(((1-amino-5,7-dimethylisoquinolin-6-yl)methyl)amino)pyridazin-4-yl)oxy)methyl)phenyl)pyridin-2(1H)-one], 8.00 to 9.00; for `Cc1cc(Cn2cc(C(=O)NCc3c(C)cc4c(N)nccc4c3C)cn2)ccc1C1CC1` [Example 2, N-((1-amino-5,7-dimethylisoquinolin-6-yl)methyl)-1-(4-cyclopropyl-3-methylbenzyl)-1H-pyrazole-4-carboxamide], 8.00 to 9.00.
With `CCCCc1cc(COc2cc(NCc3c(C)cc4c(N)nccc4c3C)ncn2)cc2cc(Cl)c[n+]([O-])c12` [Example 399, 6-(((6-(((1-amino-5,7-dimethylisoquinolin-6-yl)methyl)amino)pyrimidin-4-yl)oxy)methyl)-8-butyl-3-chloroquinoline 1-oxide] the figure was 7.00 to 8.00; with `Cc1cc2c(N)nccc2c(C)c1CNC(=O)c1cnn(Cc2cnc(-c3ccccc3)nc2)c1` [Example 195, N-((1-amino-5,7-dimethylisoquinolin-6-yl)methyl)-1-((2-phenylpyrimidin-5-yl)methyl)-1H-pyrazole-4-carboxamide], 8.00 to 9.00.
With `Cc1cc2c(N)nccc2c(C)c1CNc1cc(OCc2csc(-c3ccccc3)n2)cnn1` [Example 430, 5,7-dimethyl-6-(((5-((2-phenylthiazol-4-yl)methoxy)pyridazin-3-yl)amino)methyl)isoquinolin-1-amine] the figure was 7.00 to 8.00; with `Cc1cnc2ccc(CNc3cc(NCc4c(C)cc5c(N)nccc5c4C)ncn3)cc2c1` [Example 336, N^4-((1-amino-5,7-dimethylisoquinolin-6-yl)methyl)-N^6-((3-methylquinolin-6-yl)methyl)pyrimidine-4,6-diamine], more than 9.00; with `Cc1cc2c(N)nccc2c(C)c1CNC(=O)c1cnn(Cc2ccc3c(cnn3C)c2)c1` [Example 52, N-((1-amino-5,7-dimethylisoquinolin-6-yl)methyl)-1-((1-methyl-1H-indazol-5-yl)methyl)-1H-pyrazole-4-carboxamide], 8.00 to 9.00.
As for `Cc1cc2c(N)nccc2c(C)c1CNC(=O)c1cnn(Cc2ccc(CC(=O)NCc3ccccc3)cc2)c1` [Example 229, N-((1-amino-5,7-dimethylisoquinolin-6-yl)methyl)-1-(4-(2-(benzylamino)-2-oxoethyl)benzyl)-1H-pyrazole-4-carboxamide], the pEC50 is 7.00 to 8.00.
For `Cc1cc2c(N)nccc2c(C)c1CNC(=O)c1cnn(Cc2ccccc2C2CC2)c1` [Example 118, N-((1-amino-5,7-dimethylisoquinolin-6-yl)methyl)-1-(2-cyclopropylbenzyl)-1H-pyrazole-4-carboxamide] the value was 6.00 to 7.00.
For `Cc1cc2c(N)nccc2c(C)c1CNc1cc(NCc2ccc(OCc3nccs3)cc2)ncn1` [Example 356, N^4-((1-amino-5,7-dimethylisoquinolin-6-yl)methyl)-N^6-(4-(thiazol-2-ylmethoxy)benzyl)pyrimidine-4,6-diamine] the value was more than 9.00; for `Cc1cc2c(N)nccc2c(C)c1CNc1cc(NCc2ccc(Cn3cccn3)c(C(F)(F)F)c2)ncn1` [Example 383, N^4-(4-((1H-pyrazol-1-yl)methyl)-3-(trifluoromethyl)benzyl)-N^6-((1-amino-5,7-dimethylisoquinolin-6-yl)methyl)pyrimidine-4,5-diamine], more than 9.00; for `Cc1cc2c(N)nccc2c(C)c1CNc1cc(NCc2cnc3ccccc3c2)ncn1` [Example 317, N^4-((1-amino-5,7-dimethylisoquinolin-6-yl)methyl)-N^6-(quinolin-3-ylmethyl)pyrimidine-4,6-diamine, formic acid salt], 8.00 to 9.00.
For `Cc1cc2c(N)nccc2c(C)c1CNC(=O)c1cnn(Cc2ccc(CCn3cccn3)cc2)c1` [Example 48, 1-(4-(2-(1H-pyrazol-1-yl)ethyl)benzyl)-N-((1-amino-5,7-dimethylisoquinolin-6-yl)methyl)-1H-pyrazole-4-carboxamide] the value was 8.00 to 9.00.
`Cc1cc2c(N)nccc2c(C)c1CNc1cc(OCc2ccc(Cc3cccn(C)c3=O)cc2)ncn1` [Example 299, 3-(4-(((6-(((1-amino-5,7-dimethylisoquinolin-6-yl)methyl)amino)pyrimidin-4-yl)oxy)methyl)benzyl)-1-methylpyridin-2(1H)-one]: the pEC50 is 8.00 to 9.00.
With `Cc1cc2c(N)nccc2c(C)c1CNc1cnnc(NCc2ccc(Cn3ccccc3=O)cc2)c1` [Example 537, 1-(4-(((5-(((1-amino-5,7-dimethylisoquinolin-6-yl)methyl)amino)pyridazin-3-yl)amino)methyl)benzyl)pyridin-2(1H)-one] the figure was more than 9.00.
`Cc1cc2c(N)nccc2c(C)c1CNc1cc(NCc2ccc3nccc(C)c3c2)ncn1` [Example 324, N^4-((1-amino-5,7-dimethylisoquinolin-6-yl)methyl)-N^6-((4-methylquinolin-6-yl)methyl)pyrimidine-4,6-diamine]: the pEC50 was 8.00 to 9.00.
Take `Cc1cc2c(N)nccc2c(C)c1CNc1cc(N2C[C@@H](O[Si](C)(C)C(C)(C)C)C[C@@H]2c2cn3cc(C4CC4)ccc3n2)ncn1` [Example 512, 6-(((6-((2R,4S)-4-((tert-butyldimethylsilyl)oxy)-2-(6-cyclopropylimidazo[1,2-a]pyridin-2-yl)pyrrolidin-1-yl)pyrimidin-4-yl)amino)methyl)-5,7-dimethylisoquinolin-1-amine]: the pEC50 is 8.00 to 9.00.
With `Cc1cc2c(N)nccc2c(C)c1CNc1nccc2c1cnn2Cc1cn2cc(C3CC3)ccc2n1` [Example 266] the figure was 6.00 to 7.00.
For `Cc1cc2c(N)nccc2c(C)c1CNC(=O)c1cnn(Cc2ccc3ncc(O)cc3c2)c1` [Example 164, N-((1-amino-5,7-dimethylisoquinolin-6-yl)methyl)-1-((3-hydroxyquinolin-6-yl)methyl)-1H-pyrazole-4-carboxamide] the value was 8.00 to 9.00; for `Cc1cc2c(N)nccc2c(C)c1CNC(=O)c1cnn(Cc2cccc(F)c2)c1` [Example 45, N-((1-amino-5,7-dimethylisoquinolin-6-yl)methyl)-1-(3-fluorobenzyl)-1H-pyrazole-4-carboxamide], 6.00 to 7.00.
In the case of `Cc1cc2c(N)nccc2c(C)c1CNC(=O)c1cnn(Cc2oc3ccccc3c2C)c1` [Example 47, N-((1-amino-5,7-dimethylisoquinolin-6-yl)methyl)-1-((3-methylbenzofuran-2-yl)methyl)-1H-pyrazole-4-carboxamide], the pEC50 is 7.00 to 8.00.
For `Cc1cc2c(N)nccc2c(C)c1CNC(=O)c1cnn(Cc2cn3cc(C(F)(F)F)ccc3n2)c1` [Example 201, N-((1-amino-5,7-dimethylisoquinolin-6-yl)methyl)-1-((6-(trifluoromethyl)imidazo[1,2-a]pyridin-2-yl)methyl)-1H-pyrazole-4-carboxamide] the value was more than 9.00; for `COc1cccc(Cn2cc(C(=O)NCc3c(C)cc4c(N)nccc4c3C)cn2)c1` [Example 43, N-((1-amino-5,7-dimethylisoquinolin-6-yl)methyl)-1-(3-methoxybenzyl)-1H-pyrazole-4-carboxamide], 7.00 to 8.00.
Regarding `Cc1cc2c(N)nccc2c(C)c1CNc1cc(N(Cc2cn3nc(C4CC4)ccc3n2)CC(F)(F)F)ncn1` [Example 516, N^4-((1-amino-5,7-dimethylisoquinolin-6-yl)methyl)-N^6-((6-cyclopropylimidazo[1,2-b]pyridazin-2-yl)methyl)-N6-(2,2,2-trifluoroethyl)pyrimidine-4,6-diamine], the pEC50 is 7.00 to 8.00.
For `Cc1cc2c(N)nccc2c(C)c1CNC(=O)c1cnn(Cc2cnc3ccc(Br)cc3c2)c1` [Example 70, N-((1-amino-5,7-dimethylisoquinolin-6-yl)methyl)-1-((6-bromoquinolin-3-yl)methyl)-1H-pyrazole-4-carboxamide] the value was more than 9.00; for `COc1ccc(Cn2cc(C(=O)NCc3c(C)cc4c(N)nccc4c3C)cn2)cc1` [Example 91, N-((1-amino-5,7-dimethylisoquinolin-6-yl)methyl)-1-(4-methoxybenzyl)-1H-pyrazole-4-carboxamide], 7.00 to 8.00.
With `Cc1cc2c(N)nccc2c(C)c1CNc1cc(OCc2ccc(Cc3cccn(C)c3=O)cc2)cnn1` [Example 440, 3-(4-(((6-(((1-amino-5,7-dimethylisoquinolin-6-yl)methyl)amino)pyridazin-4-yl)oxy)methyl)benzyl)-1-methylpyridin-2(1H)-one] the figure was more than 9.00; with `COc1ccc2nc(CNc3cc(NCc4c(C)cc5c(N)nccc5c4C)ncn3)ccc2c1` [Example 307, N^4-((1-amino-5,7-dimethylisoquinolin-6-yl)methyl)-N^6-((6-methoxyquinolin-2-yl)methyl)pyrimidine-4,6-diamine], 7.00 to 8.00.
For `Cc1cc2c(N)nccc2c(C)c1CNc1cc(=O)n(Cc2cn3c(=O)n(C4CC4)ccc3n2)cn1` [Example 505, 2-((4-(((1-amino-5,7-dimethylisoquinolin-6-yl)methyl)amino)-6-oxopyrimidin-1(6H)-yl)methyl)-6-cyclopropylimidazo[1,2-c]pyrimidin-5(6H)-one] the value was less than 6.00.

Broadly, the pEC50 is −log10 of the EC50, conventionally taken in molar units.
